Test results from EP3932395A1, “STABLE EMULSION CONTAINING AN ACTIVE PHARMACEUTICAL INGREDIENT BASED ON N(3-METHYL-2-OXO-2,3-DIHYDROBENZO[D]OXAZOL-5-YL)DODECANAMIDE, PRODUCTION AND USE” (Dr. August Wolff GmbH & Co. KG Arzneimittel, priority 2020, dated 2022).

Tests used:
[1] = Solubility screening with standard cream-base excipients; type: physicochemical; conditions: Ph.Eur. terms, 15°C to 25°C
Procedure: A solubility screening with standard excipients for preparation of a cream base (glycerol monostearate 60, cetyl alcohol, MCTs, paraffin, macrogol-20-glycerol monostearate, propylene glycol and water) was performed.
The following procedure was used to prepare the samples for solubility screen: • 1. Weigh out the API • 2. Add individual excipient (both solid and liquid excipients) • 3. Slurry either by roller at RT if liquid excipient, or by shaker at 60°C if the excipient was solid • 4. Shake or sonicate occasionally • 5. Check solubility visually, if API not dissolved, add more excipient • 6. Repeat steps 3 to 5 • 7. Samples prepared in steps 1 through 6 were centrifuged and removed from the top for HPLC. • 8. Dilute each sample to 1 mL. Only samples fully dissolved were checked by HPLC.
In the general notice of Ph.Eur. in statements of solubility the terms used have the following significance, referred to at a temperature between 15°C and 25°C.

[2] = Simultaneous Thermal Analysis (STA = TGA + DTA); type: physicochemical; conditions: heated 10°C/min from 30°C to 300°C, nitrogen purge
Procedure: Simultaneous Thermal analysis (STA = TGA (Thermogravimetric Analysis) + DTA (Differential Thermal Analysis)) was performed in order to test the stability of N-(3 -methyl-2-oxo-2,3-dihydrobenzo[d]oxazol-5-yl)dodecanamide (hereinafter "the API") while heating. Approximately 10 mg of the sample was weighed into a ceramic crucible and placed into the chamber of a Perkin-Elmer STA 600 TGA/DTA analyzer at ambient temperature. The sample was then heated at a rate of 10°C/min from 30°C up to 300°C during which time the change in weight was monitored as well as DTA signal. The purge gas used was nitrogen at a flow rate of 20 cm^3/min.

[3] = Particle size distribution of the API by laser diffraction, pre and post jet-mill micronization; type: physicochemical
Excerpt: A Sturtevant qualification micronizer was used to reduce the particle size of the API. The mill was operated with tangential flow (i.e. the nitrogen supply and drug are fed in the same direction in the milling chamber). The material of API as received was fed into the jet mill using a Venturi feed system, where air was used to draw the feed material into the milling chamber. A product filter bag was affixed to the outlet of the mill, through which the exhausts and the milled drug substance collects. The milling conditions were set as follows: Grind gas: Dry nitrogen gas; Grind pressure: 80 psi; Feed pressure: 80 psi; Room conditions: Ambient.
A representative sample, dispersed at an adequate concentration in a suitable liquid, is passed through the beam of a monochromatic light source, preferably from a laser. The light scattered by the particles at various angles is measured by a multi-element detector, and numerical values relating to the scattering pattern are then recorded for subsequent analysis. These numerical scattering values are then transformed, using an appropriate optical model and mathematical procedure, to yield the proportion of total volume to a discrete number of size classes forming a volumetric particle size distribution (e.g., dso describes a particle diameter corresponding to 50% of the cumulative undersize distribution, i.e. 50% of the particles have a diameter that is smaller than a threshold value).
The Particle Size Distribution was determined using Malvern Mastersizer MicroPlus particle size analyzer (Malvern Instruments, UK) and 1% (v/v) Tween 80 in deionized water was used as dispersant for this experiment. The equipment was turned on and the following conditions were set: Analysis Model: Polydisperse; Presentation Code: Frauenhofer (5$$D); Stirring speed: 10 o'clock dial position.
The equipment was left to warm up for about 1 hour and approximately 100 mL of the dispersant was added to the sample dispersion unit. Backgrounds were first measured using the dispersant. A fresh sample was prepared by adding -20 to 50 mg API into ∼2 to 3 mL of the dispersant and this was sonicated for ∼5 minutes. The sample was added dropwise into the sample dispersion unit while stirring the dispersant until a suitable obscuration value was achieved and the particle size distribution could be measured. A minimum of three measurements were made for the pre and post micronized samples.
Alternatively, the Malvern Mastersizer 2000 can be used for the determination of Particle Size Distribution. In this case water is used as dispersant.
For upscaling purposes, the micronization process was transferred to a jet mill AS200 (Hosokawa Alpine, Germany) on which the following experiments were performed. Dry nitrogen and air were used as grind gas in order to determine the gas which is more suitable for the micronization process.

[4] = Forced degradation studies; type: physicochemical
Excerpt: Solid samples and sample solutions of N-(3-methyl-2-oxo-2,3-dihydrobenzo[d]oxazol-5-yl)dodecanamide were exposed to stress agents for a defined period and influence of stress on the compound were studied (i.e. the degradation).
The evaluation was expressed as relative percent with respect to t=0 result of unstressed sample (mass balance, % of peak areas).
The stress conditions were adjusted in such way that the degradation varied in a range of approx. 1 to 5% generated impurities.
The following stress conditions were applied: acidic and basic hydrolysis, oxidizing agent, temperature and photolytic conditions.
Solid sample - daylight, laboratory condition (VIS) - exposure time 7 days Solid sample - UV 254 nm, laboratory condition (UV) - exposure time 6 days
Solid sample, 70°C - exposure time 6 days
Sample solution, 3% H2O2, laboratory condition - exposure time 24 h
Sample solution, 0.1M HCI, 50°C - exposure time 24 h
Sample solution, 0.01-0.05M NaOH, 25°C (1M NaOH, 50°C, 1 h) - exposure time 45 min

[5] = tested on: Human lymphoma U937 cells; experiment: Cellular uptake of [3H]-AEA; type: cell-based; conditions: U-937, 100 nM AEA, 15 min pre-incubation, 15 min at 37°C
Procedure: Human lymphoma U937 cells were grown in RPMI 1640 medium (Invitrogen, Basel, Switzerland) supplemented with 10% fetal bovine serum, […] fungizone (amphotericin B), 100 units/mL penicillin, 100 µg/mL streptomycin, and 2 mM L-glutamine (all from Invitrogen) and selected for the cellular AEA uptake assay. 2.5 x 10^6 cells were collected and suspended in 250 µL of RPMI 1640 medium (Invitrogen, Basel, Switzerland) at 37°C using glass silanized vials. Cells were pre-incubated 15 min at 37°C in presence of the test compound in a concentration range of 10^-11 - 10^-5 M or in presence of the same amount (5 µL) of vehicle control (DMSO). Then a mixture of 0.5 nM [^3H]-AEA (60 Ci/mmol) (American Radiolabeled Chemicals, Inc., San Louis, MO, US) and 99.5 nM of nonradioactive AEA (Tocris Cookson Ltd., Bristol, UK) resulting in a final concentration of 100 nM AEA was added and samples were incubated at 37°C for another 15 minutes. The reaction was stopped by rapid filtration over UniFilter®-96 GF/C (Perkin Elmer, Boston MA, US) pre-soaked with PBS 0.25% BSA (w/v). […] Radioactivity was measured using a Perkin Elmer 1450 Microbeta TRILUX liquid scintillation counter. Results were expressed as % of AEA uptake versus cells treated with solvent and the EC50 and IC50 values were calculated from the sigmoidal curves, which were generated using the GraphPad Prism 5.0 (GraphPad Software, San Diego, CA, US).

[6] = Forced degradation studies; type: physicochemical; conditions: 0.05M NaOH, 5 min, room temperature
[7] = first batch (5 g), post micronization, mean ± SD
[8] = first batch (5 g), pre micronization, mean ± SD
[9] = second batch (200 g), post micronization, mean ± SD
[10] = second batch (200 g), pre micronization, mean ± SD

With CCCCCCCCCCCC(=O)Nc1ccc2oc(=O)n(C)c2c1 [API, N-(3-methyl-2-oxo-2,3-dihydrobenzo[d]oxazol-5-yl)dodecanamide] the solubility ([1]; in MCTs) was “Very slightly soluble (from 1,000 to 10,000)”, the solubility ([1]; in propylene glycol) was “Very slightly soluble (from 1,000 to 10,000)” and the solubility ([1]; in water) was “Practically insoluble (more than 10,000)”. For the same molecule, the “temperature up to which the material remained stable” value [2] was ~190 °C, the d90 ([3]; 150 g batch, jet mill AS200, normal air as grind gas, post micronization) was 7.43 µm and the d90 ([3]; 200 g batch, jet mill AS200, dry nitrogen as grind gas, post micronization) was 8.92 µm. For the same molecule, the d10 [3, 7] was 1.11±0.05 µm, the d50 [3, 7] was 2.97±0.05 µm and the d90 [3, 7] was 6.76±0.36 µm. The d10 [3, 8] was 7.53±1.55 µm, the d50 [3, 8] was 33.71±18.61 µm and the d90 [3, 8] was 106.06±56.69 µm. It also gave a d90 ([3]; jet mill AS200, batch size 0.913 kg) of 4.8 µm, a d90 ([3]; jet mill AS200, batch size 1.035 kg) of 5.5 µm and a d90 ([3]; jet mill AS200, batch size 1.073 kg) of 4.4 µm. It also gave a d90 ([3]; jet mill AS200, batch size 3.60 kg) of 7.6 µm, a d10 [3, 9] of 1.96±0.11 µm and a d50 [3, 9] of 4.98±0.10 µm. The d90 [3, 9] was 10.29±0.44 µm, the d10 [3, 10] was 26.90±3.65 µm and the d50 [3, 10] was 69.71±9.95 µm. The d90 [3, 10] was 127.67±18.59 µm, the “degradation under basic hydrolysis” value ([4]; 1M NaOH, 50°C, after 1 hour) was “completely degraded” and the “time for which the stressed sample was stable” value ([4]; 3% H2O2 solution) was “at least 24 hours”. For the same molecule, the stability conclusion ([4]; acidic condition) was “stable”, the stability conclusion ([4]; alkaline conditions) was “not stable” and the stability conclusion ([4]; oxidizing condition (H2O2)) was “stable”. The stability conclusion ([4]; photolytic conditions (VIS, UV)) was “photo stable”, the mass balance ([4]; sample solution, 0.1M HCl, 50°C, 24 h) was 101.2% and the mass balance ([4]; sample solution, 3% H2O2, 24 h) was 98%. The mass balance ([4]; solid sample, 70°C, 6 days) was 102.6%, the mass balance ([4]; solid sample, UV 254 nm, 6 days, relative to t=0 unstressed sample) was 102.4% and the mass balance ([4]; solid sample, daylight (VIS), 7 days, relative to t=0 unstressed sample) was 100.2%. The stability conclusion ([4]; temperature conditions (70°C)) was “thermo stable”, the EC50 [5] was 4 nM and the “purity of the measured sample after basic hydrolysis” value [6] was 89.50 % A.
